Measurements reported in ChEMBL document CHEMBL1201862, “PubChem BioAssay data set” (2004).
Calls of active or inactive are those of the source.

Assays:
[1] = target: G-protein coupled receptor 55 (Homo sapiens, UniProt Q9Y2T6); test: selective activators of receptor GPR55 – imaging, U2OS cells, beta-arrestin-GFP redistribution, primary screen (AID 1961); type: functional
[2] = viability loss in HEK293T cells – cell-based, cherry-picks, cytotoxicity control for HIV Vif inhibitor project, dose response (AID 652208); type: functional
[3] = system: INS1; test: INS-1E survival protection against cytokine death – cell-based, luminescence, retest, dose response (AID 449756); type: functional; settings: Rattus norvegicus;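 also: cell death triggered by IL-1 beta plus TNF-alpha plus IFN-gamma mixture; protective hits raise ATP signal compared with cytokine alone wells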
[4] = Luminescence Cell-Based Dose Response HTS to Identify Inhibitors of 5'UTR Stem-Loop Driven Prion Protein mRNA Translation in H4 Neuroglioblastoma Cells. [Related pubchem assays: 1827 (Project Summary), 1813 (Primary HTS)]; type: functional
[5] = alpha-synuclein stem-loop luciferase translation blockers – H4 neuroglioma cells, luminescence, confirmation (AID 1988); type: functional, cell-based
[6] = luciferase reporter signal suppression in cells – H4 neuroglioma cells, luminescence, dose response (AID 1990); type: functional, cell-based
[7] = Counterscreen for activators of the function of SWI/SNF related, matrix associated, actin dependent regulator of chromatin, subfamily a, member 2 (SMARCA2, BRM): Luminescence-based cell-based high throughput dose response assay to identify non-selective compounds using the VP16 reporter assay.; type: functional
[8] = target: SWI/SNF-related matrix-associated actin-dependent regulator of chromatin subfamily A member 2 (Homo sapiens, UniProt P51531); test: Luminescence-based cell-based high throughput dose response assay to identify activators of the function of SWI/SNF related, matrix associated, actin dependent regulator of chromatin, subfamily a, member 2 (SMARCA2, BRM).; type: functional
[9] = HGIII-sPLA2 enzyme inhibition potency – biochemical, QFRET, IC50, dose response (AID 743457);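 also: green fluorescence rise as the enzyme cleaves BODIPY PC-A2 in liposomes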
[10] = target: Nuclear receptor subfamily 5 group A member 2 (Homo sapiens, UniProt O00482); type: functional, cell-based;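 also: HEK293T cells transfected with LRH-1 and a StAR promoter luciferase reporter; potency for inhibitors that lower LRH-1 driven reporter light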
[11] = nonselective StAR promoter luciferase inhibitors – cell-based, luminescence, luciferase reporter, counter-screen for LRH-1 inverse agonist project, dose response (AID 651969); type: functional
[12] = target: Steroidogenic factor 1 (Homo sapiens, UniProt Q13285); test: Counterscreen for inverse agonists of the liver receptor homolog-1 (LRH-1; NR5A2): Luminescence-based cell-based high throughput dose response assay to identify inverse agonists of the Steroidogenic Factor 1 Nuclear Receptor (SF1; NR5A1).; type: functional
[13] = target: Matrix metalloproteinase-14 (Homo sapiens, UniProt P50281); test: Dose Response confirmation of uHTS hits for a small molecule inhibitors of MT1-MMP activation in a fluorescence assay set 1.; type: functional
[14] = target: T1, Protein Wnt-3a (Mus musculus, UniProt P27467); test: antagonism of Wnt3a pathway luciferase reporter – Wnt-LIGHT cells, luminescence, selectivity assay for Gli-SUFU antagonist project, dose response (AID 651570); type: functional; settings: read-out: IC50_Mean;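 also: Wnt-LIGHT reporter cells stimulated with conditioned medium from Wnt3a-producing cells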
[15] = target: Heat shock protein HSP 90-alpha (Homo sapiens, UniProt P07900); type: functional, organism-based
[16] = target: T2, X-box-binding protein 1 (Homo sapiens, UniProt P17861); type: functional, Cricetulus griseus;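 also: confirmatory dose-response counter-screen serving a CHOP assay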
T2 sequence (P17861 whole entry): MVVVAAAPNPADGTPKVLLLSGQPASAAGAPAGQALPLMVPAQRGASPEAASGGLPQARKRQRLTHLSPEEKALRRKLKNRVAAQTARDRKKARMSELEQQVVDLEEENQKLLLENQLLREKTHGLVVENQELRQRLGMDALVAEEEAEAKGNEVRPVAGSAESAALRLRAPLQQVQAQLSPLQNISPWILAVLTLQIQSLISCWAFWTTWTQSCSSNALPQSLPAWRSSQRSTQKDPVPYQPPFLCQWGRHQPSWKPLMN

[17] = target: T3, Microphthalmia-associated transcription factor (Homo sapiens, UniProt O75030); test: reducers of TRPM1 reporter luminescence, concentration series – cell-based, SK-MEL-5, cherry-picked, set 3, MITF inhibitor project, dose response (AID 493073); type: functional;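 also: SK-MEL-5 melanoma cells with luciferase driven by the MITF target TRPM1 promoter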
T3 sequence (O75030 whole entry): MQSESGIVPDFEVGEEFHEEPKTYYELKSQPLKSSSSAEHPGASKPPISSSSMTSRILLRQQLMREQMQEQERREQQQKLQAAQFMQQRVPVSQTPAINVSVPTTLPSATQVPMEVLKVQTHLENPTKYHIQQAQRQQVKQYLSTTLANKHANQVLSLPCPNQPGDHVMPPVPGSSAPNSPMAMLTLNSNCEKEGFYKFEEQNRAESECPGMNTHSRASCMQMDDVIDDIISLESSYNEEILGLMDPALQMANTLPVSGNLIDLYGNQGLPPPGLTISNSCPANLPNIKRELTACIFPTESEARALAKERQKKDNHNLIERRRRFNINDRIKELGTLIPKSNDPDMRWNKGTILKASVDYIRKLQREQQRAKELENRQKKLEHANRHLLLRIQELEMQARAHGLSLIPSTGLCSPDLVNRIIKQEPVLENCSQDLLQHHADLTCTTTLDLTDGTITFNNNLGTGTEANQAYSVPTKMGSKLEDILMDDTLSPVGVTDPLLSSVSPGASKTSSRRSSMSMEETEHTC

[18] = target: Beta Lactamase (Pseudomonas aeruginosa, UniProt Q932Y6); test: BLA reporter interference, concentration series – BLA reporter cells, FRET fluorescence, artefact control for NOD2-RIPK2 interaction inhibitor project, dose response (AID 651552); type: functional, cell-based
[19] = Fluorescence-based cell-based high throughput dose response assay for inhibitors of the interaction of nucleotide-binding oligomerization domain containing 2 (NOD2) and the receptor-interacting serine-threonine kinase 2 (RIPK2).; type: functional; settings: Homo sapiens
[20] = target: Beta-galactosidase (Escherichia coli, UniProt Q8VNN2); test: Dose response counterscreen for EBI2 assay utilizing the enzyme, b-galactosidase.; type: functional
[21] = Late stage assay provider results from the probe development effort to identify inhibitors of the Plasmodium falciparum M17 Leucine Aminopeptidase (M17LAP): radiolabel-based cell-based dose response assay to identify compounds that inhibit P. falciparum growth in RBCs Set 2.; type: functional
[22] = target: T4, Small ubiquitin-related modifier 1 (Homo sapiens, UniProt P63165); test: SUMO1 protein interaction blockers, potency – biochemical, fluorescence polarization, uHTS hits, dose response (AID 624382); type: functional; settings: read-out: IC50_Mean
[23] = target: T5, Low molecular weight phosphotyrosine protein phosphatase (Homo sapiens, UniProt P24666); type: functional; settings: read-out: IC50_Mean
T5 sequence (P24666 whole entry): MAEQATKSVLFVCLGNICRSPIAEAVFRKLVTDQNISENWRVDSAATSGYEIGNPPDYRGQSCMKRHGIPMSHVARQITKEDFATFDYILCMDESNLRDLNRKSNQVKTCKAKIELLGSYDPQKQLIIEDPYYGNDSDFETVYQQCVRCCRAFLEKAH

[24] = target: T4, Small ubiquitin-related modifier 1; test: SUMO1 protein-protein binding blockers, potency – biochemical, FRET, dose response (AID 624383); type: functional; settings: read-out: IC50_Mean
[25] = target: T5, Low molecular weight phosphotyrosine protein phosphatase; type: functional; settings: read-out: IC50_Mean; remark: listed apart in the source
[26] = intracellular Trypanosoma cruzi inhibitors in host cells – cell-based, plate reader, cherry-pick samples, set 3, dose response (AID 651818); type: functional;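 also: compounds incubated with infected cells for about four days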
[27] = mouse fibroblast viability loss – cell-based, cherry-pick samples, set 2, cytotoxicity control for T. cruzi growth inhibitor project, dose response (AID 651817); type: functional; settings: NIH3T3
[28] = target: T1, Protein Wnt-3a; test: SAR analysis of small molecule antagonists of Gli-SUFU in a Wnt3a luminescent reporter assay.; type: functional
[29] = anti-trypanosomal activity in BESM host cells – imaging, CA-I/72 strain, bovine embryo skeletal muscle, dry powder, dose response (AID 651885); type: functional, cell-based
[30] = target: T6, Sentrin-specific protease 1 (Homo sapiens, UniProt Q9P0U3); test: Dose response confirmation of small molecule inhibitors of the catalytic domain of the SUMO protease, SENP1 in a FRET assay.; type: functional; settings: read-out: IC50_Mean
[31] = target: T6, Sentrin-specific protease 1; test: SENP1 catalytic domain blockers, concentration series – biochemical, kinetic FRET, dose response (AID 651697); type: functional; settings: read-out: IC50_Mean
[32] = target: Large T antigen (Simian virus 40, UniProt P03070); type: functional, Betapolyomavirus macacae;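 also: Confirmatory-stage PubChem screen for compounds that inhibit SV40 T antigen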
[33] = target: T7, Rac GTPase-activating protein 1 (Homo sapiens, UniProt Q9H0H5); test: blockers of MgcRacGAP-driven Rac1 GTP hydrolysis – biochemical, ADP Hunter fluorescence, primary and confirmatory, confirmation (AID 624330); type: functional
T7 sequence (Q9H0H5 whole entry): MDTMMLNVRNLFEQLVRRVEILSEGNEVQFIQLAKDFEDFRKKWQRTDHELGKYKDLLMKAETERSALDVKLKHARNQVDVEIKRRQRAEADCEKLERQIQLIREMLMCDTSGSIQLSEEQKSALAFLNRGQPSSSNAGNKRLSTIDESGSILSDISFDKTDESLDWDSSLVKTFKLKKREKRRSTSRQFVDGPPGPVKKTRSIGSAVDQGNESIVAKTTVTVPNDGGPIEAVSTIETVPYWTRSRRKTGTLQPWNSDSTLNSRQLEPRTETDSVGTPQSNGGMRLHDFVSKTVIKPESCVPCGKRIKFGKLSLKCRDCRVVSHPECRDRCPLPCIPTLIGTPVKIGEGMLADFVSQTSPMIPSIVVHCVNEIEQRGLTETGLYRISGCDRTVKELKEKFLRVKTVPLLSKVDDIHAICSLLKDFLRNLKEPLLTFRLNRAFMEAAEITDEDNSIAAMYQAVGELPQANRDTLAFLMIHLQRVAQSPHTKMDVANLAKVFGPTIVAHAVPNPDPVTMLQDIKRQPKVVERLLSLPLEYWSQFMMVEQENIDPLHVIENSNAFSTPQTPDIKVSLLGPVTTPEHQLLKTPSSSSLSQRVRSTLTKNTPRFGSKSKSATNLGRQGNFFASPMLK

T6 sequence (Q9P0U3 whole entry, the tested form may be a part): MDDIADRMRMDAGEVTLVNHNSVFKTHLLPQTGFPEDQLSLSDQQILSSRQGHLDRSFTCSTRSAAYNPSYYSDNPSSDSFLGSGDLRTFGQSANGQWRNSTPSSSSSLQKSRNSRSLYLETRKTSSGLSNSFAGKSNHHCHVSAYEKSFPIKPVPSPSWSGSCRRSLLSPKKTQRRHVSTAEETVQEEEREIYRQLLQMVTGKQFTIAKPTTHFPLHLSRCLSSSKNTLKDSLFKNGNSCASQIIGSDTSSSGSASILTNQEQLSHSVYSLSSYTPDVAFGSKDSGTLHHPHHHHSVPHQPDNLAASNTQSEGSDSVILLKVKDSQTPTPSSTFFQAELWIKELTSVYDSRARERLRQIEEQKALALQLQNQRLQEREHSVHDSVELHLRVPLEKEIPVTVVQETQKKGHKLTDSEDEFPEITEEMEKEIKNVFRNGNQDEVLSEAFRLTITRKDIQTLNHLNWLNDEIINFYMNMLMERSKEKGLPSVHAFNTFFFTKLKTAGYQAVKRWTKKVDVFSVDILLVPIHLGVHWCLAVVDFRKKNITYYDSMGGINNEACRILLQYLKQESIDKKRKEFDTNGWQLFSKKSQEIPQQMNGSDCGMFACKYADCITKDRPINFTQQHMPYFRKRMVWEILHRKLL
T1 sequence (P27467 whole entry): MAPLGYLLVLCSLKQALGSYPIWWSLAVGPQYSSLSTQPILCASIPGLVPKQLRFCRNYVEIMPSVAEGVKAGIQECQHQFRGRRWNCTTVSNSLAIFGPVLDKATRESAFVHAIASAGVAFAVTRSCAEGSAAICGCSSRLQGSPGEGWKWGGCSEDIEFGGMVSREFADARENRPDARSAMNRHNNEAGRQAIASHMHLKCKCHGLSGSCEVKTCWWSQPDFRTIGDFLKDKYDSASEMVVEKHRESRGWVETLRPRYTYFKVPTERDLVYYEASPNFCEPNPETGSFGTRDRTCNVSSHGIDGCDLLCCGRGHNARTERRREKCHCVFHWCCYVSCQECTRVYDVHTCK
T4 sequence (P63165 whole entry): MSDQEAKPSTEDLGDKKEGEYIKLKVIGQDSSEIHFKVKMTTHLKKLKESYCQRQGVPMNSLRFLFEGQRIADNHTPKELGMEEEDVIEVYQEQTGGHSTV
Nuclear receptor subfamily 5 group A member 2, sequence (O00482 whole entry): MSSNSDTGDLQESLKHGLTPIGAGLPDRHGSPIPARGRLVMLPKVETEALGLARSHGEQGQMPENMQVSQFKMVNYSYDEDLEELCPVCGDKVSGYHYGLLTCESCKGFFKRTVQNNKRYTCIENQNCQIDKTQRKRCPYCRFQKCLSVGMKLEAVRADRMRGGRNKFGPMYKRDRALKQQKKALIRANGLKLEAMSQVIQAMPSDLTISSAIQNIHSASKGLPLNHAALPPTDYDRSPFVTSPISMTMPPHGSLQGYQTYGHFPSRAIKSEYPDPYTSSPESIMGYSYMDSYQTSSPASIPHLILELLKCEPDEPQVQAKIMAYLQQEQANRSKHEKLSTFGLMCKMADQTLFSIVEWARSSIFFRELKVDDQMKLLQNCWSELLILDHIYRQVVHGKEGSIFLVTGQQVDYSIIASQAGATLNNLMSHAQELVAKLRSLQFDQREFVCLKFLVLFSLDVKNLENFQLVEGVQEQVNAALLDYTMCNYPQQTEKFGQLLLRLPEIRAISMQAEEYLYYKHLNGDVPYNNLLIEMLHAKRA
Large T antigen, sequence (P03070 whole entry): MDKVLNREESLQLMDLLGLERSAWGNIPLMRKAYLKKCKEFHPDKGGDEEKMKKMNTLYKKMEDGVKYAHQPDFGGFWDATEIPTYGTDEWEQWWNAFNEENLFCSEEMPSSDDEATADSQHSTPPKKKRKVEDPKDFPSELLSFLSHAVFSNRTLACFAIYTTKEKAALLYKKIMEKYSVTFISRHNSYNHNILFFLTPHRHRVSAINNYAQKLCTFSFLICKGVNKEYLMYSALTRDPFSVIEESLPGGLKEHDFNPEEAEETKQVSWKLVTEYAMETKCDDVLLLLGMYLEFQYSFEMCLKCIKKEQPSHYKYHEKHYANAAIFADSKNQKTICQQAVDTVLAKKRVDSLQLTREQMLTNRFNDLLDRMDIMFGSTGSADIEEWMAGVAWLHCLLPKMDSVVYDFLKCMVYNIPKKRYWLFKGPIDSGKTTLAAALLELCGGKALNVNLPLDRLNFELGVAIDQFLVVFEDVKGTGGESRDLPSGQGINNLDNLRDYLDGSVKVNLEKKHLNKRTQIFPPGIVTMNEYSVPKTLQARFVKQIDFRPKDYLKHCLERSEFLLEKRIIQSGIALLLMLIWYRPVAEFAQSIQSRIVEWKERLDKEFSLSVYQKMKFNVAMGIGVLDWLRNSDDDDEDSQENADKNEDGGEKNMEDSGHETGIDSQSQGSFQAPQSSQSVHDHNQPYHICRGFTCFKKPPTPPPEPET
SWI/SNF-related matrix-associated actin-dependent regulator of chromatin subfamily A member 2, sequence (P51531 whole entry): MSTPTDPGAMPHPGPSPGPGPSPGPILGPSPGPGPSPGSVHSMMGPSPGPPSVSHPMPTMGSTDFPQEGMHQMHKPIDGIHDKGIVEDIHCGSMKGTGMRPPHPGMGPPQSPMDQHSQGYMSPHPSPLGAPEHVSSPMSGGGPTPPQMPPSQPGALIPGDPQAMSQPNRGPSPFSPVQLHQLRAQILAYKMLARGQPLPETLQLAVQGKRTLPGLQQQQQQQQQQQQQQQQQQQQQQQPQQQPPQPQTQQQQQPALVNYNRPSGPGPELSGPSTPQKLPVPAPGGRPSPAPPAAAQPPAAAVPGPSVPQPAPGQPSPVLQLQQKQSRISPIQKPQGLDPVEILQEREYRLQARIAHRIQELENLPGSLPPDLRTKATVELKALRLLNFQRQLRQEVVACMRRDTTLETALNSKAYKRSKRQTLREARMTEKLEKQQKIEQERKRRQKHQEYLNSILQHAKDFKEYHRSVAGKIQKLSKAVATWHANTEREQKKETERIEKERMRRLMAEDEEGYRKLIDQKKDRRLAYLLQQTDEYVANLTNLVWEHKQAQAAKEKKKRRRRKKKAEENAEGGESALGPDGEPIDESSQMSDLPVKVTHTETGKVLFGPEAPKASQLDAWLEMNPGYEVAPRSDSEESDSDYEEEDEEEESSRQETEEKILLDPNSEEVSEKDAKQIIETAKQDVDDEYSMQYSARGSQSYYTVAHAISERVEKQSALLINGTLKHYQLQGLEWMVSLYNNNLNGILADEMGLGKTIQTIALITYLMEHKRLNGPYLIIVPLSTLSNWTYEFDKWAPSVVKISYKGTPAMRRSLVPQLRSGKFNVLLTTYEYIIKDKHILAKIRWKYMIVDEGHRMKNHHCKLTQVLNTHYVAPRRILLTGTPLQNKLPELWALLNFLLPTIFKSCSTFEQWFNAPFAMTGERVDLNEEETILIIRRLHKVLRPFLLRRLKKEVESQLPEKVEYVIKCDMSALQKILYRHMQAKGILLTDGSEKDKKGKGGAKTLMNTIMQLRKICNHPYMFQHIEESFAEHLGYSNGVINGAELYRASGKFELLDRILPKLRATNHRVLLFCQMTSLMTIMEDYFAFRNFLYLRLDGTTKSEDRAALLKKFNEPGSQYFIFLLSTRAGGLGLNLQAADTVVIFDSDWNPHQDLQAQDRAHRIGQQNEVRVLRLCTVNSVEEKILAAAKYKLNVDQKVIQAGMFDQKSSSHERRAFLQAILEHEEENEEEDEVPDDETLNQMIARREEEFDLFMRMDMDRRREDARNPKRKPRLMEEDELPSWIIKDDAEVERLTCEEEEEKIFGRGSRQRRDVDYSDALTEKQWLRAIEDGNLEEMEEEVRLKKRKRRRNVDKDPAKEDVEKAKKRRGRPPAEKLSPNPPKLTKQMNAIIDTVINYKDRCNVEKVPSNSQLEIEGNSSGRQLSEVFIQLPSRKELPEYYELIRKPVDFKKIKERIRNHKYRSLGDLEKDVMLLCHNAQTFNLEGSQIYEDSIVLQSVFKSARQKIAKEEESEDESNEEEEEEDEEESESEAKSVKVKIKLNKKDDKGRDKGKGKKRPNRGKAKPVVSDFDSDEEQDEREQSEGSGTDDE
Beta Lactamase, sequence (Q932Y6 whole entry, the tested form may be a part): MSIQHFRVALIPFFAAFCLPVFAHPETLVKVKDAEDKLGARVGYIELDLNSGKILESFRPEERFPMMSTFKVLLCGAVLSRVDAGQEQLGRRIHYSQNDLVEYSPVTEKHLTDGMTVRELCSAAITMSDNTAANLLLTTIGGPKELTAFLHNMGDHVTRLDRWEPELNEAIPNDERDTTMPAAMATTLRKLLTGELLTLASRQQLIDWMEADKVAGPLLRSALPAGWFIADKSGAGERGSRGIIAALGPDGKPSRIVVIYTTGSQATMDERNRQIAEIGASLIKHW
Steroidogenic factor 1, sequence (Q13285 whole entry): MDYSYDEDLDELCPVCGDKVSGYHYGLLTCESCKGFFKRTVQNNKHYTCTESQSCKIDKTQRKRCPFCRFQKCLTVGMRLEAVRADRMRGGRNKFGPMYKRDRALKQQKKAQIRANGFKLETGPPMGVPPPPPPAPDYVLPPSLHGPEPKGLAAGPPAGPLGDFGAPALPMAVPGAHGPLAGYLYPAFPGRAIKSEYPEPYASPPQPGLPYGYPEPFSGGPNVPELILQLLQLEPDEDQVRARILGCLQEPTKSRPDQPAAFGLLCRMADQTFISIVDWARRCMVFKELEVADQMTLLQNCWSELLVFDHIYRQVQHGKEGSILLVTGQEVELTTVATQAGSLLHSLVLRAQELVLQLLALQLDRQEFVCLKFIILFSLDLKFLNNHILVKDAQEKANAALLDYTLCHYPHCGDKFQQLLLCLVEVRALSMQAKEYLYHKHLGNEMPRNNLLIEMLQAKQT
G-protein coupled receptor 55, sequence (Q9Y2T6 whole entry): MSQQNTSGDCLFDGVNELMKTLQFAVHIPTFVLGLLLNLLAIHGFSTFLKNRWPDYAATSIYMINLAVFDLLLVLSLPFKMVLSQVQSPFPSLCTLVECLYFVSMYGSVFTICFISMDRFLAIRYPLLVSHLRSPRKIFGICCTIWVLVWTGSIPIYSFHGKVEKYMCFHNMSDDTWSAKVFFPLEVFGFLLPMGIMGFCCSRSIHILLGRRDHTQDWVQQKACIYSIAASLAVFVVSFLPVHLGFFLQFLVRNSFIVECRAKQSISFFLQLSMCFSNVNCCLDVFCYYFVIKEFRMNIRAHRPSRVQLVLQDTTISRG

Nc1c(C(=O)Nc2ccc(S(=O)(=O)N3CCCC3)cc2)sc2nc3ccc(OC(F)(F)F)cc3cc12
EC50 [1]: 3.77 µM (active)
AC50 [2]: 15.7 µM (active)
AC50 [3]: 3.5 µM (active)
EC50 [4]: 4.12 µM (active)
EC50 [5]: 2.05 µM (active)
EC50 [6]: 5.71 µM (inconclusive)

Cc1ccc2nc(O)c3cc(C(=O)N(C)Cc4ccco4)sc3c2c1
EC50 [7]: > 91.2 µM (inactive)
EC50 [8]: > 91.2 µM (inactive)

COc1ccc(NC(=O)NNC(=O)c2ccc3ccccc3c2O)c(OC)c1
IC50 [9]: > 122 µM (inactive)

O=C(Nc1ccccc1)c1oc2ccccc2c1NC(=O)C1CC1
IC50 [10]: 35.9 µM (inactive)
IC50 [11]: 35.9 µM (inactive)
IC50 [12]: 35.9 µM (inactive)

C[N+]1=C(/C=C/Nc2ccccc2)C(C)(C)c2ccccc21
IC50 [13]: 17.4 µM (active)
IC50 [14]: 50 µM (inactive)

COc1ccc(C(=O)/C=C/C(=O)N(CC(=O)NC2CCCCC2)Cc2cccs2)c(O)c1
AC50 [15]: 2.98 µM (active)
Absolute IC50 (XBP1) [16]: 10 µM
AC50 [17]: 5.53 µM (active)
IC50 [18]: 24.7 µM (inactive)
IC50 [19]: 4.66 µM (active)

COc1ccc2cc(C(=O)N3CCN(c4cccc(C)c4C)CC3)[nH]c2c1
IC50 [20]: > 80 µM (inactive)

CCCCCCCCCC(=O)NO
IC50 [21]: 27 µM (inactive)

Cc1cc(C)c2nc3sc(=Cc4ccc(-c5ccccc5C(=O)O)o4)c(=O)n3c2c1
IC50 [22]: > 66.6 µM (inactive)
IC50 [23]: 26.5 µM (inactive)
IC50 [24]: 5.88 µM (active)
IC50 [25]: 62.9 µM (inactive)

Cc1ccc(S(=O)(=O)Nc2ccc3c(c2)CC(=O)N([C@H](C)CO)C[C@@H](C)[C@@H](CN(C)Cc2ccc(Cl)c(Cl)c2)O3)cc1
AC50 [26]: 3.29 µM (active)
AC50 [27]: 9.47 µM (active)

O=C(Nc1cc(N2CCCCC2)ncn1)c1cccc(F)c1
IC50 [28]: > 21.8 µM (inactive)

C[C@H]1CN([C@@H](C)CO)C(=O)c2cccc(NC(=O)c3ccncc3)c2O[C@@H]1CN(C)Cc1ccc(C(=O)Nc2ccccc2N)cc1
IC50 [29]: > 20 µM (inactive)

NC(=O)N/N=C/c1ccc(N2CCOCC2)s1
IC50 [30]: 11.1 µM (active)
IC50 [31]: 9.07 µM (active)
IC50 [32]: 13.8 µM (active)
IC50 [33]: 40.4 µM (active)
